Data taken from patent publication US20250034186A1, “ANTIVIRAL COMPOUNDS” (priority 2020, published 2025).

Key:
DENV2 replicon = assay: DENV-2 Huh-7 Rep EC50; type: cell-based, dengue virus; details: for EC50: Dengue virus, Huh-7 cells containing DENV2 replicon, 48 hours, read-out: DENV Huh7 REP EC50
Method: In 384 well plates (Greiner, Cat #781091), compounds were acoustically transferred at 200 nl per well in a 8 compound (4 replicates) or 40 compound dose response format (3 replicates). For all plates tested, Balapiravir, GS-5734 and NITD008 were included as positive inhibition controls alongside 0% inhibition, DMSO-only negative control wells. Following compound addition, Huh-7 cells containing the DENV2 replicon construct were harvested following standard cell culture procedures and were adjusted to a concentration of 1.25E5 cells/mL in cell culture media composed of cDMEM without genticin. 40 μL of the cell stock was then added to each well for a final cell density of 5,000 cells/well. Cell and compound mixtures were incubated at 37° C./5% CO2 for 48 hours. Prior to harvesting cells, EnduRen Live Cell Substrate (Promega, Cat #E6481) was prepared by suspending 3.4 mg into 100 uL of DMSO to generate a 60 mM stock solution. The stock solution was then diluted 1:200 in pre-warmed cDMEM and 10 uL of this diluted solution was added to each well of the 384 well plates. Plates were then centrifuged at 500 rpm briefly and were placed on a plate shaker for 2 min. Following mixing, plates were incubated at […] for 1.5 hours prior to measuring luminescence on an Envision luminometer.

HEp-2 cytotoxicity assay = type: cell-based; details: human, HEp-2 cells (uninfected), 4-5 days
Method: Cytotoxicity of the compound of Formula I and compounds 1, 2, and 6 was determined in uninfected cells using the cell viability reagent in a similar fashion as described before for other cell types (Cihlar et al., Antimicrob Agents Chemother. 2008, 52(2):655-65.). HEp-2 (1.5×10^3 cells/well) and MT-4 (2×10^3 cells/well) cells were plated in 384-well plates and incubated with the appropriate medium containing 3-fold serially diluted compound ranging from 15 nM to 100,000 nM. Cells were cultured for 4-5 days at 37° C. Following the incubation, the cells were allowed to equilibrate to 25° C., and cell viability was determined by adding Cell-Titer Glo viability reagent. The mixture was incubated for 10 min, and the luminescence signal was quantified using an Envision plate reader. Untreated cell and cells treated at 2 μM puromycin (Sigma, St. Louis, MO) serve as 100% and 0% cell viability control, respectively.

[1] = NRVM neonatal rat cardiomyocyte cytotoxicity assay; type: cell-based; details: freshly harvested neonatal cardiomyocytes (NRVM)
Method: Compounds were tested in a high-throughput 384-well assay format for cytotoxicity against freshly harvested neonatal rat cardiomyocytes (NRVM). Cells were diluted in media (DMEM+10% FBS+1% PSG+1% NEAA) to 25,000 cells/mL, plated at 90 ul per well in 384 well cell assay plates and incubated overnight at 37° C. and 5% CO2 before compound addition. Compounds were prepared by serial dilution (1:3) in 100% DMSO in 384-well plates in quadruplicate. 400 nL/well of compound were transferred into cell assay plates via Biocel (Agilent Technologies). DMSO and 2 mM Puromycin were included as negative and positive controls respectively. After 5 days, plates are washed 1× w/ 100 ul/well PBS with Biotek plate washer, and 20 μL of Cell Titer Glo was added to each well. Plates were incubated 10 min and read on EnVision reader (Perkin Elmer). […] CC50 values were calculated in Accord (on-line tool) using a one-site dose-response model to generate sigmoidal curve fits.

PBMC cytotoxicity assay = type: cell-based; details: human, cryopreserved PBMCs
Method: Compounds were tested in a high-throughput 384-well assay format for cytotoxicity in cryopreserved human PBMCs. Compounds were serially diluted (1:3) in 100% DMSO in 384-well plates in quadruplicate. An acoustic dispenser was used to transfer 310 nL of compound into assay plates. DMSO and 2 mM Puromycin were included as negative and positive controls respectively. Cells were diluted in media (RPMI+10% FBS+1% PSG+10 mM Hepes+1% Pyruvate+0.1% BMe) to 72K cells/mL and allowed to rest for 4 hours in an incubator at 37° C. and 5% CO2 before plating into prespotted assay plates at 70 uL/well. After 5 days, 25 μL of Cell Titer Glo was added to the assay plates. […] CC50 values were calculated in Accord (on-line tool) using a one-site dose-response model to generate sigmoidal curve fits.

HCV replicon 2A = assay: HCV Rep 2A EC50; type: cell-based; details: for EC50: Hepatitis C virus, 72 h, HCV replicon cells, 3 days
Method: Compounds were serially diluted in ten steps of 1:3 dilutions in 384-well plates. All serial dilutions were performed in four replicates per compound within the same 384-well plate. […] To each well of a black polystyrene 384-well plate (Greiner Bio-one, Monroe, NC), 90 μL of cell culture medium (without Geneticin) containing 2000 suspended HCV replicon cells was added with a Biotek μFlow workstation. For compound transfer into cell culture plates, 0.4 μL of compound solution from the compound serial dilution plate was transferred to the cell culture plate on a Biomek FX workstation. The DMSO concentration in the final assay wells was 0.44%. The plates were incubated for 3 days at 37° C. with 5% CO2 and 85% humidity. The HCV replicon assay was a multiplex assay, able to assess both cytotoxicity and antireplicon activity from the same well. The CC50 assay was performed first. The media in the 384-well cell culture plate was aspirated, and the wells were washed four times with 100 μL of PBS each, using a Biotek ELX405 plate washer. A volume of 50 μL of a solution containing 400 nM calcein AM (Anaspec, Fremont, CA) in 1×PBS was added to each well of the plate with a Biotek μFlow workstation. The plate was incubated for 30 min at room temperature before the fluorescence signal (excitation 490 nm, emission 520 nm) was measured with a Perkin-Elmer Envision plate reader. The EC50 assay was performed in the same wells as the CC50 assay. The calcein-PBS solution in the 384-well cell culture plate was aspirated with a Biotek ELX405 plate washer. A volume of 20 μL of Dual-Glo luciferase buffer (Promega, Madison, WI) was added to each well of the plate with a Biotek μFlow Workstation. The plate was incubated for 10 min at room temperature. […] The plate was then incubated at room temperature for 10 min before the luminescence signal was measured with a Perkin-Elmer Envision Plate Reader.

Molecule `CCOC(=O)[C@H](C)NP(=O)(OC[C@@]1(C#N)O[C@@H](c2ccc3c(N)ncnn23)[C@H](O)[C@@H]1O)Oc1ccccc1` (some centres unmarked) [Compound 1, reference compound] has an EC50 (DENV2 replicon) of 73.4 µM, a CC50 (HEp-2 cytotoxicity assay) of over 91.5 µM and a CC50 at 5 days [1] of over 44.4 µM. The CC50 at 5 days (PBMC cytotoxicity assay) was 18.2 µM.
`CCC(CC)COC(=O)[C@H](C)NP(=O)(OC[C@@]1(C#N)O[C@@H](c2ccc3c(N)ncnn23)[C@H](O)[C@@H]1O)Oc1ccccc1` (some centres unmarked) [Compound 2, reference compound] gave an EC50 (DENV2 replicon) of 5.54 µM, an EC50 (HCV replicon 2A) of 1.83 µM and a CC50 (HEp-2 cytotoxicity assay) of over 95.4 µM. It also gave a CC50 at 5 days [1] of over 44.4 µM and a CC50 at 5 days (PBMC cytotoxicity assay) of 4.65 µM.
`CCC(CC)COC(=O)[C@H](C)N[P@](=O)(OC[C@@]1(C#N)O[C@@H](c2ccc3c(N)ncnn23)[C@H](O)[C@@H]1O)Oc1ccccc1` [Compound 6, 2-ethylbutyl ((S)-(((2R,3S,4R,5S)-5-(4-aminopyrrolo[2,1-f][1,2,4]triazin-7-yl)-2-cyano-3,4-dihydroxytetrahydrofuran-2-yl)methoxy)(phenoxy)phosphoryl)alaninate] showed a CC50 (HEp-2 cytotoxicity assay) of over 95 µM, a CC50 at 5 days [1] of 8.09 µM and a CC50 at 5 days (PBMC cytotoxicity assay) of 4.79 µM.
In the case of `C[C@H](N[P@](=O)(OC[C@@]1(C#N)O[C@@H](c2ccc3c(N)ncnn23)[C@H](O)[C@@H]1O)Oc1ccccc1)C(=O)OC1CCCCC1` [Formula I, cyclohexyl ((S)-(((2R,3S,4R,5S)-5-(4-aminopyrrolo[2,1-f][1,2,4]triazin-7-yl)-2-cyano-3,4-dihydroxytetrahydrofuran-2-yl)methoxy)(phenoxy)phosphoryl)-L-alaninate], the EC50 (DENV2 replicon) is reported as 2.94 µM, the “times more potent than compound 1, DENV huh7 Rep” value (DENV2 replicon; EC50 ratio vs compound 1) is reported as “about 25.0 times” and the “times more potent compared to compound 2, DENV huh7 Rep” value (DENV2 replicon; EC50 ratio vs compound 2) is reported as “about 1.9 times”. The “times more potent relative to compound 2, HCV Rep 2A” value (HCV replicon 2A; EC50 ratio vs compound 2) was about 1.4 times, the EC50 (HCV replicon 2A) was 1.27 µM and the CC50 (HEp-2 cytotoxicity assay) was over 100 µM. The CC50 at 5 days [1] was 27.7 µM and the CC50 at 5 days (PBMC cytotoxicity assay) was over 31.6 µM.
